Laboratory results taken from patent US20080267932A1, “Lactobacillus Rhamnosus with Body-Fat Reducing Activity and the Foods Containing Them” (priority 2004, published 2008).

Legend:
[1] = tested on: Lactobacillus rhamnosus Strain PL60; experiment: Antibiotic resistance (diameter of growth inhibition); type: cell-based; conditions: antibiotic against Lactobacillus rhamnosus Strain PL60
CLA production from LA = conditions: reported strains, for comparison; cited from earlier work
overweight people = conditions: cited from earlier work

| Compound | Diameter(mm) of growth inhibition [1] | further results |
| --- | --- | --- |
| CC1(C)S[C@@H]2[C@H](NC(=O)[C@H](N)c3ccccc3)C(=O)N2[C@H]1C(=O)O [Ampicillin] | 21 mm |  |
| CC1(C)S[C@@H]2[C@H](NC(=O)C(C(=O)O)c3ccccc3)C(=O)N2[C@H]1C(=O)O (stereo partly shown) [Carbenicillin] | 25 mm |  |
| CCN1CCN(C(=O)N[C@@H](C(=O)N[C@@H]2C(=O)N3C(C(=O)O)=C(CSc4nnnn4C)CS[C@H]23)c2ccc(O)cc2)C(=O)C1=O [Cefoperazone] | 22 mm |  |
| CC(=O)OCC1=C(C(=O)O)N2C(=O)[C@@H](NC(=O)Cc3cccs3)[C@H]2SC1 [Cephalothin] | 20 mm |  |
| O=C(N[C@H](CO)[C@H](O)c1ccc([N+](=O)[O-])cc1)C(Cl)Cl [Chloramphenicol] | 24 mm |  |
| CCC[C@@H]1C[C@@H](C(=O)N[C@@H]([C@H]2O[C@H](SC)[C@H](O)[C@@H](O)[C@H]2O)[C@H](C)Cl)N(C)C1 [Clindamycin] | 26 mm |  |
| CC[C@H]1OC(=O)[C@H](C)[C@@H](O[C@H]2C[C@@](C)(OC)[C@@H](O)[C@H](C)O2)[C@H](C)[C@@H](O[C@@H]2O[C@H](C)C[C@H](N(C)C)[C@H]2O)[C@](C)(O)C[C@@H](C)C(=O)[C@H](C)[C@@H](O)[C@]1(C)O [Erythromycin] | 28 mm |  |
| Cc1onc(-c2ccccc2)c1C(=O)N[C@@H]1C(=O)N2[C@@H]1SC(C)(C)[C@@H]2C(=O)O [Oxacillin] | 8 mm |  |
| CCN1CCN(C(=O)N[C@@H](C(=O)N[C@@H]2C(=O)N3[C@@H]2SC(C)(C)[C@@H]3C(=O)O)c2ccccc2)C(=O)C1=O [Piperacilin] | 30 mm |  |
| CO[C@H]1/C=C/O[C@@]2(C)Oc3c(C)c(O)c4c(O)c(c(/C=N/N5CCN(C)CC5)c(O)c4c3C2=O)NC(=O)/C(C)=C\C=C\[C@H](C)[C@H](O)[C@@H](C)[C@@H](O)[C@@H](C)[C@H](OC(C)=O)[C@@H]1C [Rifampin] | 24 mm |  |
| [H]/N=C(/N)N[C@H]1[C@H](O)[C@@H](O)[C@H](O[C@@H]2O[C@@H](C)[C@](O)(C=O)[C@H]2O[C@@H]2O[C@@H](CO)[C@H](O)[C@@H](O)[C@@H]2NC)[C@@H](N/C(N)=N\[H])[C@@H]1O [Streptomycin] | 11 mm |  |
| CN(C)[C@@H]1C(O)=C(C(N)=O)C(=O)[C@@]2(O)C(O)=C3C(=O)c4c(O)cccc4[C@@](C)(O)[C@H]3C[C@@H]12 [Tetracycline] | 29 mm |  |
| CN[C@H](CC(C)C)C(=O)N[C@H]1C(=O)N[C@@H](CC(N)=O)C(=O)N[C@H]2C(=O)N[C@H]3C(=O)N[C@H](C(=O)N[C@H](C(=O)O)c4cc(O)cc(O)c4-c4cc3ccc4O)[C@H](O)c3ccc(c(Cl)c3)Oc3cc2cc(c3O[C@@H]2O[C@H](CO)[C@@H](O)[C@H](O)[C@H]2O[C@H]2C[C@](C)(N)[C@H](O)[C@H](C)O2)Oc2ccc(cc2Cl)[C@H]1O [Vancomycin] | 6 mm |  |
| Gentamicin | 10 mm |  |
| Lactobacillus reuteri |  | yield of t10c12 CLA (CLA production from LA): 30 ppm |
| Penicillin | 25 mm |  |
| Trimethpprime/sulfamethoxasole | 6 mm |  |
| conjugated linoleic acid [CLA] |  | weight loss (overweight people; 180 overweight people, administered for one year): 4-10%; side effects (overweight people; in vivo): without side effects |
